A word on the LC50: it is the concentration lethal to half of the exposed cells or organisms.

The record followed here is ChEMBL document CHEMBL1141823, “Malayenolides A-D, novel diterpenes from the indonesian sea pen veretillum malayense” (J Nat Prod, 1999).

Values after ≈ are worked out from the molar mass of the structure shown.

The series is described as follows: Toxicity against brine shrimp. Type of series: organism-based. The conditions noted are these: artemia, in vivo.
With `CC(=O)O[C@H]1CC=C(C)[C@@H]2CC3=C(C)C(=O)O[C@H]3/C=C(/C)CC[C@H](OC(=O)c3ccccc3)[C@@]12C` [MALAYENOLIDE A], the 50% lethal concentration (LC50) was 100 µg/mL (≈ 209 µM).
With `CC(=O)O[C@H]1C[C@@H]2O[C@]2(C)[C@@H]2CC3=C(C)C(=O)O[C@H]3/C=C(/C)CC[C@H](OC(=O)c3ccccc3)[C@@]12C` [MALAYENOLIDE B], the LC50 was under 2 µg/mL.
Then `CC(=O)O[C@H]1CC=C(C)[C@@H]2CC3=C(C)C(=O)O[C@H]3/C=C(/C)CC[C@H](OC(=O)C=C(C)C)[C@@]12C` [MALAYENOLIDE C], with 20 µg/mL (≈ 43.8 µM); and `CC(=O)O[C@H]1C[C@@H]2O[C@]2(C)[C@@H]2CC3=C(C)C(=O)O[C@H]3/C=C(/C)CC[C@H](OC(=O)C=C(C)C)[C@@]12C` [MALAYENOLIDE D], with 20 µg/mL (≈ 42.3 µM).
